# Data taken from ChEMBL document CHEMBL1201862, “PubChem BioAssay data set” (2004).
# The source made the active and inactive calls.
# Columns and labels:
# [1] = molecular target: Disintegrin and metalloproteinase domain-containing protein 17 (Homo sapiens, UniProt P78536); test: exosite inhibitors of ADAM17, dose response, biochemical (AID 743260)
# [2] = ADAM10 protease inhibitors, dose response, selectivity assay for ADAM17 exosite inhibitor project, biochemical, FRET peptide substrate, recombinant human ADAM10 (AID 743259);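 further: ADAM10 enzyme cleaving a FRET peptide substrate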
# [3] = miR-122 activators in hepatoma reporter cells, dose response, cell-based, Huh7 psiCHECK-miR122, Renilla luciferase, cherry-picked (AID 651956); assay type: functional;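 further: huh7 hepatoma cells stably carrying a psiCHECK-2 miR-122 sensor plasmid; renilla luciferase signal reporting endogenous miR-122 activity after 48 h compound exposure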
# Paired box protein Pax-8 = Paired box protein Pax-8 (Homo sapiens, UniProt Q06710); test: inhibitors of PAX8-driven TPO luciferase reporter, dose response, RMG-I cells, cherry-pick (AID 687027); assay type: functional, cell-based;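 further: luciferase reporter driven by Pax8 target thyroperoxidase promoter measured by SteadyGlo luminescence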
# Sequence of Paired box protein Pax-8 (Q06710 whole entry): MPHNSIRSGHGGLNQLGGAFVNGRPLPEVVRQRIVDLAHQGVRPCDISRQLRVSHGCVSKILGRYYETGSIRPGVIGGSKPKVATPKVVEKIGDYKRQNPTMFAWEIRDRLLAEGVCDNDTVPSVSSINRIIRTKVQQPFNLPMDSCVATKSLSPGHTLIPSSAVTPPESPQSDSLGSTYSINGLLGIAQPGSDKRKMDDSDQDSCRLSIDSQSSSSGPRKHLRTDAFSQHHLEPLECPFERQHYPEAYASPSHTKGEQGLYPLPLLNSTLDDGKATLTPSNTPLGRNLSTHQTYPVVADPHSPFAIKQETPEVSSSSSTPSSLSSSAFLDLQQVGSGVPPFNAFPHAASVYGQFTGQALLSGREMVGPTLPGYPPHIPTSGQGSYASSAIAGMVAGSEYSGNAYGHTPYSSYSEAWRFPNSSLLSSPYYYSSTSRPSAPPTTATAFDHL
# [4] = HEK293T cytotoxicity, dose response, cytotoxicity control for miR-122 modulator project, cell-based, inhibitor set, cherry-pick, set 2 (AID 720697); assay type: functional
# HeLa = test: HeLa cell cytotoxicity, dose response, cytotoxicity control, ATP luminescence, cherry-pick samples (AID 687004); assay type: functional, cell-based; settings: Homo sapiens
# [5] = P. falciparum Dd2 growth inhibitors, dose response, SYBR Green, cherry-picked samples (AID 1159567); assay type: functional, cell-based
# [6] = A375 melanoma cell viability loss, dose response, counter-screen for MITF inhibitor project, CellTiter-Glo luminescence, dry powder, set 4 (AID 624364); assay type: functional, cell-based; settings: A-375;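 further: A375 melanoma cells are MITF independent so this is a counter screen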
# [7] = A375 melanoma cell cytotoxicity, dose response, counter-screen for MITF inhibitor project, CellTiter-Glo luminescence, dry powder, set 2 (AID 624489); assay type: functional, cell-based; settings: A-375;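 further: actives are compounds lowering A375 viability meaning general cytotoxicity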
# [8] = molecular target: T1, RNA-editing ligase 1, mitochondrial (Trypanosoma brucei brucei, UniProt P86926); test: TbREL1 ligase inhibitors, dose response, biochemical, fluorescence, Trypanosoma brucei (AID 1117295); assay type: functional
# T1 sequence (P86926 whole entry): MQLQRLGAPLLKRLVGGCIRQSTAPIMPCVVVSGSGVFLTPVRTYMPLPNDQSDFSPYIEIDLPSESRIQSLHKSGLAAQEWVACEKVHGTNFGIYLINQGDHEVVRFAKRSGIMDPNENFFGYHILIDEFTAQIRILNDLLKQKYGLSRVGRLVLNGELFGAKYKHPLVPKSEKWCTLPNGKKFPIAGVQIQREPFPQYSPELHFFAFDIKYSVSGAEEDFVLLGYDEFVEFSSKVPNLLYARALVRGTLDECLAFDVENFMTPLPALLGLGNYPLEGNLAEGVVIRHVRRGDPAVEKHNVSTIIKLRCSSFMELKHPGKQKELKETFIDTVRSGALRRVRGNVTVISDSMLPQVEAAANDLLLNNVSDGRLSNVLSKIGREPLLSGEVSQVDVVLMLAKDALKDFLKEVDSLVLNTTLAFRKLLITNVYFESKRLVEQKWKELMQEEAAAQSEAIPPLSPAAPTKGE
# [9] = Glucagon-like peptide 1 release potency, NCI-H716 cell line, dose-response, half-maximal inhibitory concentration (AID 1117344); assay type: functional, cell-based
# Sequence of Disintegrin and metalloproteinase domain-containing protein 17 (P78536 whole entry, the tested form may be a part): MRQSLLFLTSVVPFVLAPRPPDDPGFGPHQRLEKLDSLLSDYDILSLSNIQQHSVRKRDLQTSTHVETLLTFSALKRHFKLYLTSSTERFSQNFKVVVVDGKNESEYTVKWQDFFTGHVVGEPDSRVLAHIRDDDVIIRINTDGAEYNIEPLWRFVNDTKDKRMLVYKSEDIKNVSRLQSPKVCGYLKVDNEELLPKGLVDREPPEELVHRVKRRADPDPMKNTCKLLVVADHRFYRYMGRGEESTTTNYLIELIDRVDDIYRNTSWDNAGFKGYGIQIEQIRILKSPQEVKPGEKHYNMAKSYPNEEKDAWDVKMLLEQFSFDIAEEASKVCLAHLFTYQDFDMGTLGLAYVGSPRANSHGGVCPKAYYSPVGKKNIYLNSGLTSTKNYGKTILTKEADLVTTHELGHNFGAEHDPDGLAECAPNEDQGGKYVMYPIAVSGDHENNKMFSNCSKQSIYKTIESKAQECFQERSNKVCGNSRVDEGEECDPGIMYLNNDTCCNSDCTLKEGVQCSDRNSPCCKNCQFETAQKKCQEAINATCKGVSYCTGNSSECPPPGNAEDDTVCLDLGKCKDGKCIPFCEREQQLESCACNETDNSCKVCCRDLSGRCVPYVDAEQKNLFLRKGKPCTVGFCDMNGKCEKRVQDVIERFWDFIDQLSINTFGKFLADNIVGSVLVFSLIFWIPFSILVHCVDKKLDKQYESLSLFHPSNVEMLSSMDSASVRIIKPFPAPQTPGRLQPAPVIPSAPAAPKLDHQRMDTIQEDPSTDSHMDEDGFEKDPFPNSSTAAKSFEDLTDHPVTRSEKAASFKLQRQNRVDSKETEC
structure (smiles),measurement,setting,value
CCc1noc(C)c1C(=O)OC(C)C(=O)Nc1ccc2c(c1)OCO2 (stereo not drawn),IC50,[1],> 69.6 µM (inactive)
same,IC50,[2],> 69.6 µM (inactive)
C[C@H](CO)N1C[C@H](C)[C@@H](CN(C)Cc2ccc(-c3ccccc3)cc2)Oc2ccc(NC(=O)Cc3ccccc3)cc2CC1=O,AC50,[3],21.3 µM (active)
same,AC50,Paired box protein Pax-8,9.36 µM (active)
same,AC50,[4],28.7 µM (active)
C[C@@H]1CN([C@@H](C)CO)C(=O)c2cc(NC(=O)Nc3ccccc3)ccc2O[C@@H]1CN(C)C(=O)Nc1cccc2ccccc12,AC50,HeLa,> 52 µM (inactive)
same,AC50,[5],8.14 µM (active)
CCN(CC)CCNC1=C(Nc2ccccc2)C(=O)c2ccccc2C1=O,AC50,[6],> 70 µM (inactive)
same,AC50,[7],> 70 µM (inactive)
CN1C(=O)c2cc(NC(=O)Cc3ccccc3)ccc2OC[C@H]2O[C@@H](CC(=O)NC3CCC3)CC[C@@H]21,AC50,[4],9.59 µM (active)
Cc1ccc(C(=O)NC2=C(c3ccccc3)C(=O)c3ccccc3C2=O)o1,AC50,[6],21.8 µM (active)
same,AC50,[7],19.1 µM (active)
COC(=O)C1=C(C)N(Cc2cccc(C(F)(F)F)c2)C(NCc2ccc(OC)cc2)=NC1c1ccccc1C(F)(F)F (stereo not drawn),IC50,[8],> 96.6 µM (inactive)
COc1ccc(C2=C(NC(=O)c3cccc(OC)c3)C(=O)c3ccccc3C2=O)cc1,AC50,[6],29.5 µM (active)
same,AC50,[7],13.6 µM (active)
COc1ccc(C2=C(NC(=O)c3ccccc3Cl)C(=O)c3ccccc3C2=O)cc1,AC50,[6],17.5 µM (active)
same,AC50,[7],11.8 µM (active)
CCN(CC)CCOc1ccc(/C(=C(\Cl)c2ccccc2)c2ccccc2)cc1 [CLOMIPHENE],IC50,[9],> 40 µM (inactive)
